# Results reported in patent publication US11040952B2, “Phthalazinone compound, method for preparation thereof, pharmaceutical composition thereof, and use thereof” (SHANGHAI INSTITUTE OF MATERIA MEDICA, CHINESE ACADEMY OF …, priority 2017, dated 2021).
# Molecular target: T1, HBV capsid (Hepatitis B virus genotype D subtype ayw, UniProt P03146)
# T1 construct: expressed in transfected cells
# Assay: HBV capsid assembly, non-denaturing agarose gel electrophoresis
# Type: cell-based
# Settings: Southern blot with HBV-specific probes, FIG. 1
# Procedure: 1×10^6 dispersed cells were added with […] of cell lysate (50 mM Tris-HCl pH 7.5, 1 mM EDTA, 0.5% Nonidet P-40), and lysed on ice for 15 min, with vortexing every 5 min to make sure that the cells were sufficiently lysed. The lysed cells were centrifuged at 10,000×g for 10 min at 4° C. to remove nuclei and cell debris. 20 μl of the cell lysate was added into the well of 1.2% or 1.8% agarose gel. Electrophoresis was run at 70V for 2.5 h at 4° C. […] After electrophoresis, the membrane-transferring was performed by siphon overnight. One sample was transferred to a nitrocellulose membrane (Amersham™ Hybond-ECL, GE), and the capsid was detected with anti-HBcAg antibody (Abcam) using Western blot method; another sample was in situ denatured with a denaturing solution (1.5 M NaCl, 0.5 M NaOH) for 45 min, neutralized with a neutralizing solution (1.5 M NaCl, 1 M Tris-HCl pH 7.4) for 45 min, and transferred to a nylon membrane (Amersham™ Hybond-N+, GE), and then the level of nucleic acid in the capsid was detected with HBV-specific probes by using Southern blot method.
# T1 sequence (P03146 whole entry): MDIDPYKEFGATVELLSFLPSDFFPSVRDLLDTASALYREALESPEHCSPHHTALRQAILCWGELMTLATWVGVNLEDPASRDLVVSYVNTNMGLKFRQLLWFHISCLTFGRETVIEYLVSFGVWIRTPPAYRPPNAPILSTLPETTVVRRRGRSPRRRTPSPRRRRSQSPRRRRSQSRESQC
row,Structure (SMILES),content of HBV DNA in the capsid
1,O=c1c2ccccc2c(-c2cccnc2F)nn1Cc1ccc(Cl)cc1 [Compound I-3],significantly reduced
2,[2H]C(c1ccc(Cl)cc1)n1nc(-c2ccc(C)nc2F)c2ccccc2c1=O (stereo not drawn) [Compound I-24],significantly reduced
3,CNc1ccc(-c2nn(Cc3ccc(Cl)cc3)c(=O)c3ccccc23)c(F)n1 [Compound I-12],significantly reduced
4,Cc1ccc(-c2nn(Cc3ccc(Cl)cc3)c(=O)c3ccccc23)c(F)n1 [Compound I-10],significantly reduced
5,[2H]C(c1ccc(Cl)cc1)n1nc(-c2ccc(F)nc2F)c2ccccc2c1=O (stereo not drawn) [Compound I-26],significantly reduced
6,O=c1c2ccccc2c(-c2ccc(F)nc2F)nn1Cc1ccc(Cl)cc1 [Compound I-9],significantly reduced
7,Nc1ccc(-c2nn(Cc3ccc(Cl)cc3)c(=O)c3ccccc23)c(F)n1 [Compound I-11],significantly reduced

# Same assay, conditions: non-denaturing agarose gel, anti-HBcAg Western blot, FIG. 1
row,Structure (SMILES),generation of abnormal capsid (electrophoretic migration)
1,O=c1c2ccccc2c(-c2cccnc2F)nn1Cc1ccc(Cl)cc1 [Compound I-3],induce the generation of an abnormal capsid with faster electrophoretic migration speed
2,[2H]C(c1ccc(Cl)cc1)n1nc(-c2ccc(C)nc2F)c2ccccc2c1=O (stereo not drawn) [Compound I-24],induce the generation of an abnormal capsid with faster electrophoretic migration speed
3,CNc1ccc(-c2nn(Cc3ccc(Cl)cc3)c(=O)c3ccccc23)c(F)n1 [Compound I-12],induce the generation of an abnormal capsid with faster electrophoretic migration speed
4,Cc1ccc(-c2nn(Cc3ccc(Cl)cc3)c(=O)c3ccccc23)c(F)n1 [Compound I-10],induce the generation of an abnormal capsid with faster electrophoretic migration speed
5,[2H]C(c1ccc(Cl)cc1)n1nc(-c2ccc(F)nc2F)c2ccccc2c1=O (stereo not drawn) [Compound I-26],induce the generation of an abnormal capsid with faster electrophoretic migration speed
6,O=c1c2ccccc2c(-c2ccc(F)nc2F)nn1Cc1ccc(Cl)cc1 [Compound I-9],induce the generation of an abnormal capsid with faster electrophoretic migration speed
7,Nc1ccc(-c2nn(Cc3ccc(Cl)cc3)c(=O)c3ccccc23)c(F)n1 [Compound I-11],induce the generation of an abnormal capsid with faster electrophoretic migration speed

# Tested on: not listed separately
# Assay: Tissue distribution in mice
# Type: in vivo
# Settings: mouse, liver, po 10 mg/kg, 1 h, read-out: Mean drug concentration, Liver
# Procedure: 10 μl of a plasma and tissue sample was placed in a 1.5 ml centrifuge tube, added with 100 μl of an internal standard solution (5.00 ng/ml verapamil and 50.0 ng/ml Glibenclamide solution in acetonitrile), vortexed for 60 seconds, and then centrifuged for 3 min (at 12000 rpm); 75 μl of the supernatant was transferred to a 96-well plate loaded with an equal volume of water, and shaken for mixing well and then analyzed. The injection volume was 10 μl. Internal standard: an appropriate amount of verapamil and glibenclamide standards were dissolved and diluted in dimethyl sulfoxide (DMSO), shaken for mixing well, and prepared into a stock solution with a mass concentration of 2000 μg/ml, which was further diluted into internal standard working solutions of 5.00 ng/ml and 50.0 ng/ml. Stock solution: an appropriate amount of the compound was weighted and formulated into a 2.00 mg/ml stock solution with DMSO. Working solution: The stock solution was stepwisely diluted to obtain the solutions at each gradient concentration. 5.00 μl of reference standard working solution was added to 45.0 μl of a mice blank plasma and blank tissue. Then it was treated according to the method described in the section of “Sample pretreatment method”. Administration solution: a certain amount of a compound was precisely weighed and formulated into a 2.00 mg/ml milky white suspension in a ratio of 2.5% DMSO+97.5% (0.5% MC). Approximately 0.1 ml of orbital blood and liver was collected in EDTAK2 for anticoagulation from each animal that had been anesthetized with isoflurane. For the PO group, the blood was collected at 1 h, 3 h, and 8 h after administration of the test compound. After collection, the blood sample was analyzed by using comparative compounds I-70 and I-88.
row,Structure (SMILES),concentration at 1 h
1,N#Cc1ccc(Cn2nc(-c3ccc(C(F)(F)F)nc3F)c3ccccc3c2=O)cc1 [IV-15],7270 ng/g
2,"Cc1ccc(-c2cc(C)c(=O)n(Cc3ccc(Cl)cc3)n2)c(F)n1 [I-88, reference compound]",34.2 ng/g
3,Cc1ccc(-c2nn(Cc3ccc(Cl)cc3)c(=O)c3ccccc23)c(F)n1 [Compound I-10],476 ng/g
4,Nc1ccc(-c2nn(Cc3ccc(Cl)cc3)c(=O)c3ccccc23)c(F)n1 [Compound I-11],1220 ng/g
5,N#Cc1ccc(Cn2nc(-c3ccc(F)nc3F)c3ccccc3c2=O)cc1 [IV-5],1030 ng/g

# Same assay, conditions: mouse, liver, po 10 mg/kg, 3 h, read-out: Mean drug concentration, Liver
row,Structure (SMILES),concentration at 3 h
1,N#Cc1ccc(Cn2nc(-c3ccc(C(F)(F)F)nc3F)c3ccccc3c2=O)cc1 [IV-15],4460 ng/g
2,"Cc1ccc(-c2cc(C)c(=O)n(Cc3ccc(Cl)cc3)n2)c(F)n1 [I-88, reference compound]",9.64 ng/g
3,Cc1ccc(-c2nn(Cc3ccc(Cl)cc3)c(=O)c3ccccc23)c(F)n1 [Compound I-10],318 ng/g
4,Nc1ccc(-c2nn(Cc3ccc(Cl)cc3)c(=O)c3ccccc23)c(F)n1 [Compound I-11],1410 ng/g
5,N#Cc1ccc(Cn2nc(-c3ccc(F)nc3F)c3ccccc3c2=O)cc1 [IV-5],1050 ng/g

# Same assay, conditions: mouse, liver, po 10 mg/kg, 8 h, read-out: Mean drug concentration, Liver
row,Structure (SMILES),concentration at 8 h
1,N#Cc1ccc(Cn2nc(-c3ccc(C(F)(F)F)nc3F)c3ccccc3c2=O)cc1 [IV-15],2800 ng/g
2,Cc1ccc(-c2nn(Cc3ccc(Cl)cc3)c(=O)c3ccccc23)c(F)n1 [Compound I-10],2.91 ng/g
3,Nc1ccc(-c2nn(Cc3ccc(Cl)cc3)c(=O)c3ccccc23)c(F)n1 [Compound I-11],815 ng/g
4,N#Cc1ccc(Cn2nc(-c3ccc(F)nc3F)c3ccccc3c2=O)cc1 [IV-5],1190 ng/g

# Same assay, conditions: mouse, plasma, po 10 mg/kg, 1 h, read-out: Mean drug concentration, Plasma
row,Structure (SMILES),concentration at 1 h
1,N#Cc1ccc(Cn2nc(-c3ccc(C(F)(F)F)nc3F)c3ccccc3c2=O)cc1 [IV-15],549 ng/mL
2,"Cc1ccc(-c2cc(C)c(=O)n(Cc3ccc(Cl)cc3)n2)c(F)n1 [I-88, reference compound]",169 ng/mL
3,Cc1ccc(-c2nn(Cc3ccc(Cl)cc3)c(=O)c3ccccc23)c(F)n1 [Compound I-10],61 ng/mL
4,"Cc1cc(-c2ccc(F)nc2F)nn(Cc2ccc(Cl)cc2)c1=O [I-70, reference compound]",161 ng/mL
5,Nc1ccc(-c2nn(Cc3ccc(Cl)cc3)c(=O)c3ccccc23)c(F)n1 [Compound I-11],33.3 ng/mL
6,N#Cc1ccc(Cn2nc(-c3ccc(F)nc3F)c3ccccc3c2=O)cc1 [IV-5],154 ng/mL

# Same assay, conditions: mouse, plasma, po 10 mg/kg, 3 h, read-out: Mean drug concentration, Plasma
row,Structure (SMILES),concentration at 3 h
1,N#Cc1ccc(Cn2nc(-c3ccc(C(F)(F)F)nc3F)c3ccccc3c2=O)cc1 [IV-15],437 ng/mL
2,"Cc1ccc(-c2cc(C)c(=O)n(Cc3ccc(Cl)cc3)n2)c(F)n1 [I-88, reference compound]",180 ng/mL
3,Cc1ccc(-c2nn(Cc3ccc(Cl)cc3)c(=O)c3ccccc23)c(F)n1 [Compound I-10],12.5 ng/mL
4,"Cc1cc(-c2ccc(F)nc2F)nn(Cc2ccc(Cl)cc2)c1=O [I-70, reference compound]",71.7 ng/mL
5,Nc1ccc(-c2nn(Cc3ccc(Cl)cc3)c(=O)c3ccccc23)c(F)n1 [Compound I-11],32.5 ng/mL
6,N#Cc1ccc(Cn2nc(-c3ccc(F)nc3F)c3ccccc3c2=O)cc1 [IV-5],63.2 ng/mL

# Same assay, conditions: mouse, plasma, po 10 mg/kg, 8 h, read-out: Mean drug concentration, Plasma
row,Structure (SMILES),concentration at 8 h
1,N#Cc1ccc(Cn2nc(-c3ccc(C(F)(F)F)nc3F)c3ccccc3c2=O)cc1 [IV-15],257 ng/mL
2,"Cc1ccc(-c2cc(C)c(=O)n(Cc3ccc(Cl)cc3)n2)c(F)n1 [I-88, reference compound]",0.993 ng/mL
3,"Cc1cc(-c2ccc(F)nc2F)nn(Cc2ccc(Cl)cc2)c1=O [I-70, reference compound]",17.3 ng/mL
4,Nc1ccc(-c2nn(Cc3ccc(Cl)cc3)c(=O)c3ccccc23)c(F)n1 [Compound I-11],23 ng/mL
5,N#Cc1ccc(Cn2nc(-c3ccc(F)nc3F)c3ccccc3c2=O)cc1 [IV-5],80.1 ng/mL

# Same assay, conditions: po 10 mg/kg
row,Structure (SMILES),liver targeting
1,N#Cc1ccc(Cn2nc(-c3ccc(C(F)(F)F)nc3F)c3ccccc3c2=O)cc1 [IV-15],good liver targeting in mice
2,Cc1ccc(-c2nn(Cc3ccc(Cl)cc3)c(=O)c3ccccc23)c(F)n1 [Compound I-10],good liver targeting in mice
3,Nc1ccc(-c2nn(Cc3ccc(Cl)cc3)c(=O)c3ccccc23)c(F)n1 [Compound I-11],good liver targeting in mice
4,N#Cc1ccc(Cn2nc(-c3ccc(F)nc3F)c3ccccc3c2=O)cc1 [IV-5],good liver targeting in mice

# Same assay, conditions: po 10 mg/kg, 1 h
row,Structure (SMILES),"Mean drug concentration, Liver"
1,"Cc1cc(-c2ccc(F)nc2F)nn(Cc2ccc(Cl)cc2)c1=O [I-70, reference compound]",BLQ^a

# Same assay, conditions: po 10 mg/kg, 3 h
row,Structure (SMILES),"Mean drug concentration, Liver"
1,"Cc1cc(-c2ccc(F)nc2F)nn(Cc2ccc(Cl)cc2)c1=O [I-70, reference compound]",BLQ

# Same assay, conditions: po 10 mg/kg, 8 h
Structure (SMILES),"Mean drug concentration, Liver","Mean drug concentration, Plasma"
"Cc1ccc(-c2cc(C)c(=O)n(Cc3ccc(Cl)cc3)n2)c(F)n1 [I-88, reference compound]",BLQ,
Cc1ccc(-c2nn(Cc3ccc(Cl)cc3)c(=O)c3ccccc23)c(F)n1 [Compound I-10],,BLQ
"Cc1cc(-c2ccc(F)nc2F)nn(Cc2ccc(Cl)cc2)c1=O [I-70, reference compound]",BLQ,

# Tested on: HBV
# Assay: HBV DNA content in the supernatant of cell culture (real-time PCR)
# Type: cell-based, hepatitis B virus (HBV)
# Settings: Hepatitis B virus, HepG2.2.15, 192 h, inhibition of HBV DNA replication, HepG2.2.15 supernatant, 8 days
# Outline: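 HepG2.2.15 cells stably carrying full-length HBV exposed to compounds for 8 days in DMEM with 10% FBS, medium renewed on day 4. Supernatant virion HBV DNA extracted and quantified by real-time PCR against a 1e^7-1e^4 IU/ml standard curve; IC50 calculated.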
row,Structure (SMILES),IC50
1,O=c1c2ccccc2c(-c2cccnc2F)nn1Cc1ccc(Cl)cc1 [Compound I-3],500 nM
2,N#Cc1ccc(Cn2nc(-c3ccc(C(F)(F)F)nc3F)c3ccccc3c2=O)cc1 [IV-15],270 nM
3,[2H]C(c1ccc(Cl)cc1)n1nc(-c2ccc(C)nc2F)c2ccccc2c1=O (stereo not drawn) [Compound I-24],400 nM
4,CNc1ccc(-c2nn(Cc3ccc(Cl)cc3)c(=O)c3ccccc23)c(F)n1 [Compound I-12],600 nM
5,Cc1ccc(-c2nn(Cc3ccc(Cl)cc3)c(=O)c3ccccc23)c(F)n1 [Compound I-10],100 nM
6,[2H]C(c1ccc(Cl)cc1)n1nc(-c2ccc(F)nc2F)c2ccccc2c1=O (stereo not drawn) [Compound I-26],900 nM
7,O=c1c2ccccc2c(-c2ccc(F)nc2F)nn1Cc1ccc(Cl)cc1 [Compound I-9],300 nM
8,Nc1ccc(-c2nn(Cc3ccc(Cl)cc3)c(=O)c3ccccc23)c(F)n1 [Compound I-11],900 nM
9,N#Cc1ccc(Cn2nc(-c3ccc(F)nc3F)c3ccccc3c2=O)cc1 [IV-5],120 nM

# Tested on: not listed separately
# Assay: MTT assay for cytotoxicity
# Type: cell-based, Human
# Settings: human, HepG2.2.15 cells, half (50%) lethal concentration
# Outline: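 HBV-transfected HepG2.2.15 cells were cultured with compound for 8 days at 37 °C in DMEM/10% FBS, with medium changed on day 4. Viability was read by MTT (4 h, then 12 h lysis, OD570) against control wells. CC50 is the concentration cutting viability by 50%.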
row,Structure (SMILES),CC50 at 8 days
1,O=c1c2ccccc2c(-c2cccnc2F)nn1Cc1ccc(Cl)cc1 [Compound I-3],> 100000 nM
2,N#Cc1ccc(Cn2nc(-c3ccc(C(F)(F)F)nc3F)c3ccccc3c2=O)cc1 [IV-15],> 100000 nM
3,[2H]C(c1ccc(Cl)cc1)n1nc(-c2ccc(C)nc2F)c2ccccc2c1=O (stereo not drawn) [Compound I-24],> 100000 nM
4,CNc1ccc(-c2nn(Cc3ccc(Cl)cc3)c(=O)c3ccccc23)c(F)n1 [Compound I-12],15700 nM
5,Cc1ccc(-c2nn(Cc3ccc(Cl)cc3)c(=O)c3ccccc23)c(F)n1 [Compound I-10],81800 nM
6,[2H]C(c1ccc(Cl)cc1)n1nc(-c2ccc(F)nc2F)c2ccccc2c1=O (stereo not drawn) [Compound I-26],> 100000 nM
7,O=c1c2ccccc2c(-c2ccc(F)nc2F)nn1Cc1ccc(Cl)cc1 [Compound I-9],40700 nM
8,Nc1ccc(-c2nn(Cc3ccc(Cl)cc3)c(=O)c3ccccc23)c(F)n1 [Compound I-11],22600 nM
9,N#Cc1ccc(Cn2nc(-c3ccc(F)nc3F)c3ccccc3c2=O)cc1 [IV-5],> 100000 nM
